Here are results for 14 compounds from US7812022B2 (GlaxoSmithKline LLC, priority 2004, dated 2010).

As usually defined, the IC50 is the concentration that inhibits the measured activity by half.

Assay [1] concerns BT474 and HN5 tumor cell lines. Kind of assay: Methylene blue growth inhibition assay (cellular Method A). The format is cell-based, Human. Conditions: 3 days, read-out: Activity (Method): growth inhibition IC50 class. The procedure:
Human breast (BT474) and head and neck (HN5) were cultured in low glucose DMEM (Life Technologies 12320-032) containing 10% fetal bovine serum (FBS). Human colon tumor cells (Colo205) were cultured in DMEM (Invitrogen, 10564) containing 10% FBS. The SV40 transformed human mammary epithelial cell line HB4a was transfected with either human H-ras cDNA (HB4a r4.2) or the human c-ErbB2 cDNA (HB4a c5.2). The HB4a clones were cultured in RPMI containing 10% FBS, insulin (5 g/mL), hydrocortisone (5 g/mL), supplemented with the selection agent hygromycin B (50 g/mL). All lines were grown in a humidified incubator at 37° C. in 95% air, 5% CO2. Cells were harvested using trypsin/EDTA, counted using a haemocytometer, and plated in 100 microliters of the appropriate media, at the following densities, in a 96-well tissue culture plate (Falcon 3075): BT474 10,000 cells/well, HN5 3,000 cells/well. The next day, compounds were diluted in DMEM containing […] gentamicin, at twice the final required concentration, from 10 mM stock solutions in DMSO. 100 microliters/well of these dilutions were added to the 100 microliters of media currently on the cell plates. Medium containing 0.6% DMSO was added to control wells. Compounds diluted in DMEM were added to all cell lines. The final concentration of DMSO in all wells was 0.3%. Cells were returned to the incubator (37° C., 10% CO2) for 3 days. Medium was then removed by aspiration. Cell biomass was estimated by staining cells with 90 microliters per well methylene blue (Sigma M9140, 0.5% in 1:1 ethanol:water), and incubation at rt for at least 30 minutes. Stain was removed, and the plates rinsed by immersion in deionized water and air-dried. To release stain from the cells 100 microliters of solubilization solution was added (1% N-lauroyl sarcosine, Sodium salt, Sigma L5125, in PBS), and plates were shaken gently for about 30 minutes. Optical density at 620 nm was measured on a microplate reader. Percent inhibition of cell growth was calculated relative to vehicle treated control wells. Concentration of compound that inhibits 50% of control cell growth (IC50) was interpolated using nonlinear regression (Levenberg-Marquardt) and the equation, y=Vmax*(1−(x/(K+x)))+Y2, where “K” was equal to the IC50. Method B: Celltiter Glo® Growth Inhibition Assays

The target in a further assay is T1, ErbB2 or EGFR.
T1 construct: enzymes purified from a baculovirus expression system; Reagent production was conducted essentially as described in Brignola, P. S., et al, (2002) J. Biol. Chem. 277(2): 1576-1585
Kind of assay: ErbB family substrate phosphorylation enzyme assay (HTRF), Method A or Method B. The format is biochemical. How it is done: Compounds of the present invention were tested for EGFR, ErbB-2, and ErbB-4 protein tyrosine kinase inhibitory activity in substrate phosphorylation assays using enzymes purified from a baculovirus expression system. Reagent production was conducted essentially as described in Brignola, P. S., et al, (2002) J. Biol. Chem. 277(2): 1576-1585.
The method measures the ability of the isolated enzyme to catalyse the transfer of the gamma-phosphate from ATP onto the tyrosine residue of a biotinylated synthetic peptide referenced “Peptide C” in Brignola, P. S., et al, (2002) J. Biol. Chem. 277(2):1576-1585. The extent of tyrosine phosphorylation was measured using an anti-phosphotyrosine antibody, and quantified by homogenous time-resolved fluorescence (HTRF).
Reactions were performed in black 384-well polystyrene flat-bottom plates in a final volume of 20 ul. Assays were performed by adding 10 μl of each of the following solutions, substrate Mix and enzyme mix: The Substrate mix contained 100 mM 3-[N-morpholino]propanesulfonic acid (MOPS) (pH 7.5), 2 mM MnCl2, 20 μM ATP, 0.01% Tween-20, 0.1 mg/mL (BSA), 0.8 uM peptide substrate, and 1 mM dithiothreitol. The enzyme mix contained 100 mM MOPS (pH7.5); 0.01% Tween-20; 0.1 mg/mL BSA, and either 0.8 nM EGFR, 10 nM ErbB2, or 1 nM ErbB4
During the course of these studies, two separate methods have been used to measure the potency of compounds. In Method A, the substrate mix was added to the compound plates first, then the reaction was started by adding the enzyme mix. In Method B, the enzyme mix was added to the compound plates and the plates were incubated at 20° C. for 1 hour. The reactions were then started by adding the substrate mix.
After initiating the reaction with either method describe above, the reactions were allowed to proceed for 90 minutes at 20° C. The reactions were then terminated by the addition of 20 μl 100 mM EDTA to each well. 40 μl/well of HTRF detection mix were added to the assay plates. The final concentrations of the detection reagents were: 100 mM HEPES (pH7.5), 0.1 mg/mL BSA, 15 nM streptavidin-labeled allophycocyanin (PerkinElmer), and 1 nM europium-labeled anti-phosphotyrosine antibody (PerkinElmer). Assay plates were left unsealed and were counted in a Wallac Multilabel Counter 1420 (PerkinElmer).
Compounds under analysis were dissolved in Me2SO to 1.0 mM and serially diluted 1 to 3 with Me2SO through twelve dilutions. 1 μl of each concentration was transferred to the corresponding well of an assay plate. This creates a final compound concentration range from 0.00027 to 47.6 μM.
The data for dose responses were plotted as % Inhibition calculated with the data reduction formula 100*(1−(U1−C2)/(C1−C2)) versus concentration of compound where U is the unknown value, C1 is the average control value obtained for 4.76% DMSO, and C2 is the average control value obtained for 0.035 M EDTA. Data were fitted with a curve described by: y=((Vmax*x)/(K+x))+Y^2 where Vmax is the upper asymptote, Y2 is the Y intercept, and K is the IC50. The results for each compound were recorded as pIC50s, calculated as follows: pIC50=−Log 10(K)
(Time-resolved FRET reads energy transfer from a long-lived donor to a nearby acceptor.)

[2] abbreviates: Method B: enzyme mix pre-incubated with compound 1 hour at 20° C., started with substrate mix.
[3] abbreviates: Method A: substrate mix added first, reaction started with enzyme mix.

Read-outs that look alike come from different tables or passages of the source.

For `O=C(Nc1cccc(-c2nn3ccccc3c2-c2ccnc(Nc3cccc(-c4cnco4)c3)n2)c1)c1c(F)cccc1F` [Example 35, 2,6-Difluoro-N-{3-[3-(2-{[3-(1,3-oxazol-5-yl)phenyl]amino}-4-pyrimidinyl)pyrazolo[1,5-a]pyridin-2-yl]phenyl}benzamide], the IC50 in assay [1] (Homo sapiens, BT-474, 72 h) is under 100 nM. In addition, at ErbB2 or EGFR (setting [2]), the “Activity (Method): pIC50 class against ErbB2 or EGFR” value (“Activity (Method): pIC50 class” for short) was “+++ (B) (at least one pIC50 measurement of greater than 7 against either ErbB2 or EGFR)”.

Turning to `COc1ccc(Nc2nccc(-c3c(-c4cccc(NC(=O)c5c(F)cccc5F)c4)nn4ccccc34)n2)cc1N1CCNCC1` [Example 111, 2,6-Difluoro-N-{3-[3-(2-{[4-(methyloxy)-3-(1-piperazinyl)phenyl]amino}-4-pyrimidinyl)pyrazolo[1,5-a]pyridin-2-yl]phenyl}benzamide], in assay [1] (Homo sapiens, BT-474, 72 h), the IC50 was under 100 nM. For the same compound, the “Activity (Method): pIC50 class” value on ErbB2 or EGFR (setting [2]) is recorded as “+++ (B) (at least one pIC50 measurement of greater than 7 against either ErbB2 or EGFR)”.

For `S=C(Nc1cccc(-c2nn3ccccc3c2-c2ccnc(Nc3ccc4c(c3)OCCO4)n2)c1)c1ccccc1` [Example 7, N-(3-{3-[2-(2,3-Dihydro-benzo[1,4]dioxin-6-ylamino)-pyrimidin-4-yl]-pyrazolo[1,5-a]pyridin-2-yl}-phenyl)-thiobenzamide], in assay [1] (Homo sapiens, BT-474, 72 h), the IC50 was 100 to 1000 nM. Also, the “Activity (Method): pIC50 class” value on ErbB2 or EGFR (setting [3]) is “++ (A) (at least one pIC50 measurement greater than 6 against either ErbB2 or EGFR but no measurement greater than pIC50 of 7)”.

`CC(c1cccc(Nc2nccc(-c3c(-c4cccc(NC(=O)c5c(F)cccc5F)c4)nn4ccccc34)n2)c1)S(C)(=O)=O` (single isomer, unassigned) [Example 123, 2,6-Difluoro-N-(3-{3-[2-({3-[1-(methylsulfonyl)ethyl]-phenyl}amino)-4-pyrimidinyl]pyrazolo[1,5-a]pyridin-2-yl}phenyl)benzamide]: the IC50 in assay [1] (Homo sapiens, BT-474, 72 h) was under 100 nM.

On to `O=C(Nc1cccc(-c2nn3ccccc3c2-c2ccnc(Nc3cccc(F)c3)n2)c1)c1cccc(F)c1F` [Example 14, 2,3-Difluoro-N-(3-{3-[2-(3-fluoro-phenylamino)-pyrimidin-4-yl]-pyrazolo[1,5-a]pyridin-2-yl}-phenyl)-benzamide], for which the IC50 in assay [1] (Homo sapiens, BT-474, 72 h) was under 100 nM. Further, the “Activity (Method): pIC50 class” value on ErbB2 or EGFR (setting [2]) was “+++ (B) (at least one pIC50 measurement of greater than 7 against either ErbB2 or EGFR)”.

In the case of `Cc1cc(Nc2nccc(-c3c(-c4cccc(NC(=O)c5c(F)cccc5F)c4)nn4ccccc34)n2)ccc1C#N` [Example 95], the IC50 in assay [1] (Homo sapiens, BT-474, 72 h) was under 100 nM. Moreover, the “Activity (Method): pIC50 class” value on ErbB2 or EGFR (setting [2]) is reported as “+++ (B) (at least one pIC50 measurement of greater than 7 against either ErbB2 or EGFR)”.

Turning to `COc1cc(Nc2nccc(-c3c(-c4cccc(NC(=O)c5c(F)cccc5F)c4)nn4c(C(F)(F)F)cccc34)n2)cc(OC)c1OC` [Example 151, N-[3-(3-{2-[(3,4,5-Trimethoxyphenyl)amino]-4-pyrimidinyl}-7-trifluoropyrazolo[1,5-b]pyridin-2-yl)phenyl]-2,6-difluorobenzamide], the IC50 in assay [1] (Homo sapiens, BT-474, 72 h) lay in the range of 100 to 1000 nM. For the same compound, the “Activity (Method): pIC50 class” value at ErbB2 or EGFR (setting [3]) is “++ (A) (at least one pIC50 measurement greater than 6 against either ErbB2 or EGFR but no measurement greater than pIC50 of 7)”.

As for `O=C(Cc1ccccc1)c1ccc(Nc2nccc(-c3c(-c4cccc(NC(=O)c5c(F)cccc5F)c4)nn4ccccc34)n2)cc1` [Example 102, 2,6-Difluoro-N-{3-[3-(2-{[4-(phenylacetyl)phenyl]-amino}-4-pyrimidinyl)pyrazolo[1,5-a]pyridin-2-yl]-phenyl}benzamide], in assay [1] (Homo sapiens, BT-474, 72 h), the half-maximal inhibitory concentration (IC50) fell in the range of 100 to 1000 nM.

`CC(=O)Nc1cccc(Nc2nccc(-c3c(-c4cccc(NC(=O)c5c(F)cccc5F)c4)nn4ccccc34)n2)c1` [Example 36, N-{3-[3-(2-{[3-(Acetylamino)phenyl]amino}-4-pyrimidinyl)pyrazolo[1,5-a]pyridin-2-yl]phenyl}-2,6-difluorobenzamide]: the IC50 in assay [1] (Homo sapiens, BT-474, 72 h) is under 100 nM. Also, the “Activity (Method): pIC50 class” value at ErbB2 or EGFR (setting [3]) is given as “+++ (A) (at least one pIC50 measurement of greater than 7 against either ErbB2 or EGFR)”.

`Cc1nc2ccc(Nc3nccc(-c4c(-c5cccc(NC(=O)c6c(F)cccc6F)c5)nn5ccccc45)n3)cc2nc1C` [Example 97, N-[3-(3-{2-[(2,3-Dimethyl-6-quinoxalinyl)amino]-4-pyrimidinyl}pyrazolo[1,5-a]pyridin-2-yl)phenyl]-2,6-difluorobenzamide]: the IC50 in assay [1] (Homo sapiens, BT-474, 72 h) was 100 to 1000 nM.

Regarding `CC(c1cccc(Nc2nccc(-c3c(-c4cccc(NC(=O)c5c(F)cccc5F)c4)nn4ccccc34)n2)c1)S(C)(=O)=O` (single isomer, unassigned) [Example 124, 2,6-Difluoro-N-(3-{3-[2-({3-[1-(methylsulfonyl)ethyl]-phenyl}amino)-4-pyrimidinyl]pyrazolo[1,5-a]pyridin-2-yl}phenyl)benzamide], the IC50 in assay [1] was under 100 nM.

As for `O=C(Nc1cccc(-c2nn3ccccc3c2-c2ccnc(Nc3cccc(F)c3)n2)c1)c1ccccn1` [Example 22, Pyridine-2-carboxylic acid (3-{3-[2-(3-fluoro-phenylamino)-pyrimidin-4-yl]-pyrazolo[1,5-a]pyridin-2-yl}-phenyl)-amide], the IC50 in assay [1] (Homo sapiens, BT-474, 72 h) lay within 100 to 1000 nM.

Regarding `O=C(Nc1cccc(-c2nn3ccccc3c2-c2ccnc(Nc3cccc(F)c3)n2)c1)c1ccccn1` [Example 76, N-[3-(3-{2-[(3-fluorophenyl)amino]-4-pyrimidinyl}pyrazolo[1,5-a]pyridin-2-yl)phenyl]-2-pyridinecarboxamide], the “Activity (Method): pIC50 class” value on ErbB2 or EGFR (method not given) is “+++ (at least one pIC50 measurement of greater than 7 against either ErbB2 or EGFR)”.

As for `Cc1ccc2c(-c3ccnc(Nc4cccc(F)c4)n3)c(-c3cccc(NC(=O)c4cc(F)ccc4F)c3)nn2c1` [Example 40, 2,5-Difluoro-N-[3-(3-{2-[(3-fluorophenyl)amino]-4-pyrimidinyl}-6-methylpyrazolo[1,5-a]pyridin-2-yl)phenyl]benzamide], the IC50 in assay [1] (Homo sapiens, BT-474, 72 h) lay in the range of 100 to 1000 nM.
